Assay results from patent US20250367282A1, “POLYCATION CARRIER PARTICLE” (ALLARTA LIFE SCIENCE INC., priority 2022, published 2025).

Assays:
[1] = tested on: RAW 264.7 macrophage cells; type: cell-based
Method: The cells were cultured for 3 days to reach about 80% confluence. The media was removed from the wells and the cells were washed once with about 250 μL of PBS. […] As controls, cells were exposed to a) 100 μL of serum-free DMEM, b) 100 µL of 10% v/v DMSO in serum-free DMEM, and c) 100 μL of 0.1 wt. % OVA-FITC in serum-free DMEM, were added to the cells. The cells were incubated for 4 h at 37° C., 5% CO2 in a humidified atmosphere. […] After 15 min, the paraformaldehyde solution was removed, the cells were washed twice with about 250 μL of PBS, and then 100 μL of PBS was added to the fixed cells. The cells were then imaged by brightfield and confocal fluorescence microscopy

[2] = tested on: RAW 264.7 macrophage cells; assay: MTS cytotoxicity assay; type: cell-based; details: 4 hours incubation; particles 0.1 wt. %, DMSO 10% v/v, serum-free DMEM; mean±standard deviation
Method: The cells were cultured for 3 days to reach around 80% confluence. The media was removed from the wells and the cells were washed once with about 250 μL of PBS. […] As controls, 100 μL of serum-free DMEM supplemented with 1% penicillin-streptomycin, 100 μL of 10% v/v DMSO in serum-free DMEM supplemented with 1% penicillin-streptomycin, 100 μL of 0.1 wt. % OVA-FITC in serum-free DMEM supplemented with 1% penicillin-streptomycin, and 100 μL of 0.1 wt. % HD particles suspensions in serum-free DMEM supplemented with 1% penicillin-streptomycin were added to the cells. The cells were incubated for 4 h at 37° C., 5% CO2 in a humidified atmosphere. 20 μL of MTS solution (Promega) was added to the wells and mixed. The plates were shaken at a horizontal distance of 1 mm for 10 seconds and read at 490 nm using a Biotek™ 800 TS absorbance reader. Statistical analysis was performed on the data using one-way analysis of variance (ANOVA) with a Bonferroni post hoc analysis. Significance level was set at p<0.05.

Question: Which results are given for C[S+](C)[O-] [DMSO, dimethyl sulfoxide]?
Answer: cell morphology by brightfield microscopy [1]: rounded cell morphology and signs of apoptosis; mean viability of RAW 264.7 cells [2]: 64±12%
